Results taken from ChEMBL document CHEMBL4680325, “Design and synthesis of 14 and 15-membered macrocyclic scaffolds exhibiting inhibitory activities of hypoxia-inducible factor 1α” (Bioorg Med Chem, 2021).

What was measured:
[1] = Inhibition of hypoxia-induced HIF1alpha/P300-CBP interaction mediated gene transcriptional activity in human HeLa cells co-transfected with luciferase reporter plasmid containing HRE and pRL-CMV vector incubated for 12 hrs under hypoxic condition by HRE-dependent dual luciferase reporter gene assay; type: cell-based
[2] = tested on: HCT-116; test: Antiproliferative activity against human HCT-116 cells assessed as reduction in cell proliferation measured after 2 days by MTT assay; type: functional, cell-based; settings: HCT-116, 48 h
[3] = tested on: DMS-114; test: Antiproliferative activity against human DMS-114 cells assessed as reduction in cell proliferation measured after 2 days by MTT assay; type: functional, cell-based; settings: DMS-114, 48 h
[4] = tested on: HeLa; test: Cytotoxicity against human HeLa cells co-transfected with luciferase reporter plasmid containing HRE and pRL-CMV vector incubated for 12 hrs under hypoxic condition by MTT assay; type: cell-based
[5] = tested on: HeLa; test: Antiproliferative activity against human HeLa cells assessed as reduction in cell proliferation measured after 48 hrs by MTT assay; type: functional, cell-based

Row | Compound | IC50 [1] [µM] | IC50 [2] [µM] | IC50 [3] [µM] | IC50 [4] [µM] | IC50 [5] [µM]
1 | OCc1ccc(-c2nn(Cc3ccccc3)c3ccccc23)o1 | 1 | – | – | – | –
2 | CC(C)CCN1C/C=C/CCN(CCCc2ccccc2)C(=O)CN[C@@H](C)C(=O)N[C@@H](CC(C)C)C1=O | 13.7 | 33.3 | 48.9 | > 50 | 71.2
3 | CC(C)CCN1C/C=C/CN(CCCc2ccccc2)C(=O)CN[C@@H](C)C(=O)N[C@@H](CC(C)C)C1=O | 16.3 | 25.1 | 32.2 | > 50 | 97.1
4 | CC(C)CCC(=O)N1C/C=C/CN(CCC(C)C)C(=O)[C@H](CC(C)C)NC(=O)[C@H](C)NC(=O)C1 | > 33 | > 90 | > 90 | > 50 | > 100
5 | CC(C)CCC(=O)N1CCCCN(CCC(C)C)C(=O)[C@H](CC(C)C)NC(=O)[C@H](C)NC(=O)C1 | > 33 | 83.8 | > 90 | > 50 | > 100
6 | CC(C)CCN1C/C=C/CN(CCCc2ccccc2)C(=O)CN2CCC[C@H]2C(=O)N[C@@H](CC(C)C)C1=O | 13.8 | 17.1 | 20.9 | > 50 | 54
7 | CC(C)CCN1CCCCCN(CCCc2ccccc2)C(=O)CN[C@@H](C)C(=O)N[C@@H](CC(C)C)C1=O | 8.7 | 34.3 | 49 | > 50 | 55.5
8 | CC(C)CCN1CCCCN(CCCc2ccccc2)C(=O)CN2CCC[C@H]2C(=O)N[C@@H](CC(C)C)C1=O | 9.5 | 12.3 | 17.3 | > 50 | 66.4
9 | CC(C)CCN1CCCCN(CCCc2ccccc2)C(=O)CN[C@@H](C)C(=O)N[C@@H](CC(C)C)C1=O | 9.96 | 34.8 | 45 | > 50 | 58.9
